Assay results published in patent US10422787B2, “System and method for single molecule detection” (ARIZONA BOARD OF REGENTS on behalf of ARIZONA STATE …, priority 2015, dated 2019).
[ ]: non-standard residue; d: D form.

Assays:
Assay type in all cases: binding
αvβ3 = target: T1, αvβ3 (Homo sapiens, UniProt P05106+P06756); assay: STM break-junction, effect of electrode modification (ligand) on frequency of large current events
T1 construct: the αVβ3 extracelluar domain of human integrin; purchased YO Proteins AB
Text: The molecular specificity of the αVβ3-RGD binding was investigated by comparing the selectivity of RGD functionalized surfaces with the selectivity of surfaces functionalized with cyclic RGE, a cyclic peptide of the same charge (RGD, pI=6.09; RGE pI=6.18) and differing by only one carbon atom. The effects of functionalizing only the probe or substrate were also investigated. The results of these experiments are summarized in Table 2 (no events were observed without functionalization). […] It can be concluded that one chemical contact is required for the high conductance to be observed, and that the specificity and frequency of events increases with the chemical specificity of the contact. In addition, specific binding results in larger current peaks at larger retraction distances than obtained with less-specific binding.
RGE is a cyclic peptide differing from RGD by only one carbon atom.
Functionalizing STM probes and substrates: The STM probes were etched from a 0.25 mm Pd wire (California Fine Wires) by an AC electrochemical etching method, and then insulated with high-density polyethylene, leaving an open apex of a few tens of nanometers in diameter. Before use, the probes were tested in 1 mM phosphate buffer (pH=7.4) at 0.5 V bias to ensure that the leakage current was <1 pA. For functionalization, the probe was gently cleaned using ethanol and water, respectively, and then dried with nitrogen flow. The probe was immersed in a 0.5 mg/mL peptide solution for ˜20 h. After that, the probe was taken out, rinsed with water, dried with nitrogen gas, and used immediately. Palladium substrates were prepared by depositing a 100 nm palladium film onto a 10 nm titanium adhesion layer coated onto a 750 μm thick silicon wafer using an electron-beam evaporator (Lesker PVD 75). The substrate was annealed with a hydrogen flame immediately before being functionalized by the same method as that for probe. Fourier transform infrared (FTIR) spectroscopy was used to characterize the functionalization. Pd substrates were also treated by UV- Ozone cleaner and H2 gas reduction (to remove PdO).
Preparation of RGD and RGE: RGD peptide, cyclo(Arg-Gly-Asp-D-Phe-Cys), was obtained from Peptides International (Louisville, Ky.). RGE peptide, cyclo(Arg-Gly-Glu-D-Phe-Cys), was synthesized by CPC Scientific (Sunnyvale, Calif.) with a purity>95%. For chip and STM tip functionalization, peptides were dissolved to a final concentration of 0.5 mg/mL in a freshly degassed 1 mM phosphate buffer (pH=7.4), which was prepared using water from a Milli-Q system with a resistance of ˜18 MΩ and a total organic carbon contamination below 4 ppb.
STM Measurements: Break junction measurements were carried out with a PicoSPM scanning probe microscope (Agilent Technologies). The Teflon liquid cells were cleaned in Piranha solution and then sonicated in Milli-Q water three times (Note that: the Piranha is highly corrosive and must be handled with extreme care). The current set point was 4 pA. Different sample bias was applied to the substrate as required. For better surface charge control, an Ag/AgCl with a salt bridge (10 mM KCl) was connected to the substrate. The tip was approached to the substrate with an integral and proportional gain of 1.0 and then left to stabilize for 0.5 h. For break junction measurements, the tip was first brought into the set point position. After 5 s of waiting, the tip was retracted 10 nm from the substrate with a speed of 0.17 nm/s, during which a current-distance trace was recorded. Subsequently, the tip was re-engaged and the retraction process repeated. About one hundred traces were collected for each experiment and at least three independent experiments were conducted for each sample (using a different substrate and tip each time).

α4β1 = target: T2, α4β1 (Homo sapiens, UniProt P05556+P13612); assay: as above
T2 construct: purchased R&D Systems (Bio-Techne)

αVβ3 integrin = αVβ3 integrin (Homo sapiens, UniProt P05106+P06756); assay: Capture of αVβ3 integrin by cyclic RGD peptide in junction device
Text: In experiments, the concentration used to obtain signals with the single molecule capture device had to be quite high (i.e., nanomolar or higher) in order for the probability of capturing a single molecule in a reasonable time to be significant. In some embodiments, this probability is proportional to the volume from which molecules can be captured in a reasonable time. For example, if the molecules diffuse freely with a diffusion constant D (e.g., about 10^−11 m^2/s), then the volume from which molecules can be collected in a time t, over a linear junction length L, is given approximately by πr^2L where r^2=Dt. Taking t=60 s and L=36 nm (approximately the length of the junction around the edge of a 12 nm diameter pore), about 40 molecules would be present at 1 nM concentration in the resulting volume of 6.5×10^−17 m^3 (=6.5×10^−14 liters). […] Thus, for a device with X=10 μm, the capture volume in 1 minute capture time becomes 10^−14 m^3 or almost 100× greater. In fact, upon the solution being flowed over the device, the effective capture length is orders of magnitude greater. […] Thus, if about a linear cm of fluid is flowed past a junction slowly enough that each volume of length equal to the junction length spends about a minute over the junction, then concentrations as small as a femtomole will yield a signal.

T1 sequence (P06756 31-992 limits assumed): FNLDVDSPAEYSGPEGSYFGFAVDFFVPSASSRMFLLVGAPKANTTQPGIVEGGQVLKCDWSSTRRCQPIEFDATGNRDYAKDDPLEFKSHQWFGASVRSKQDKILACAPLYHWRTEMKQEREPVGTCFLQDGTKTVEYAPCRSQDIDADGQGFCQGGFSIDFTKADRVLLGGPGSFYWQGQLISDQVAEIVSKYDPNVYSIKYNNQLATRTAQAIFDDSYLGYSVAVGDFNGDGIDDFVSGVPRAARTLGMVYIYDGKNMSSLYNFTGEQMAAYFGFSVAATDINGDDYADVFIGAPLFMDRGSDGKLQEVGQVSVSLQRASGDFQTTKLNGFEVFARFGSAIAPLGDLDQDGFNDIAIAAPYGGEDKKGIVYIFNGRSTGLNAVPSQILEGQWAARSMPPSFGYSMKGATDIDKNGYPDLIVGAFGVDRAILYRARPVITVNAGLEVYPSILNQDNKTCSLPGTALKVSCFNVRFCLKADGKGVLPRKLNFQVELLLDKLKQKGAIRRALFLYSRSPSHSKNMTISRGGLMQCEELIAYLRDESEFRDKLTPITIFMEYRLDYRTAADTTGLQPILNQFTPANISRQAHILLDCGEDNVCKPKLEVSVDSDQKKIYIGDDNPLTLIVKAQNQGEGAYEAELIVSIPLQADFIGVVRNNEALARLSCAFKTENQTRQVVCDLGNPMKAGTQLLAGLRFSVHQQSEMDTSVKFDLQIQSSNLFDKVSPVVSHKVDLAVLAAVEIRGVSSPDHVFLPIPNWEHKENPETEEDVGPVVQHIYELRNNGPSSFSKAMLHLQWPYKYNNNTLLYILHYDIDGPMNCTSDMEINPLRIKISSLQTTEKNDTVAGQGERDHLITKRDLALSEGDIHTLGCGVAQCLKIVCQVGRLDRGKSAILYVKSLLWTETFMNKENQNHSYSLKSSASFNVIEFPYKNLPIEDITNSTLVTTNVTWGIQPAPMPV
T1 sequence (P05106 27-718 limits assumed): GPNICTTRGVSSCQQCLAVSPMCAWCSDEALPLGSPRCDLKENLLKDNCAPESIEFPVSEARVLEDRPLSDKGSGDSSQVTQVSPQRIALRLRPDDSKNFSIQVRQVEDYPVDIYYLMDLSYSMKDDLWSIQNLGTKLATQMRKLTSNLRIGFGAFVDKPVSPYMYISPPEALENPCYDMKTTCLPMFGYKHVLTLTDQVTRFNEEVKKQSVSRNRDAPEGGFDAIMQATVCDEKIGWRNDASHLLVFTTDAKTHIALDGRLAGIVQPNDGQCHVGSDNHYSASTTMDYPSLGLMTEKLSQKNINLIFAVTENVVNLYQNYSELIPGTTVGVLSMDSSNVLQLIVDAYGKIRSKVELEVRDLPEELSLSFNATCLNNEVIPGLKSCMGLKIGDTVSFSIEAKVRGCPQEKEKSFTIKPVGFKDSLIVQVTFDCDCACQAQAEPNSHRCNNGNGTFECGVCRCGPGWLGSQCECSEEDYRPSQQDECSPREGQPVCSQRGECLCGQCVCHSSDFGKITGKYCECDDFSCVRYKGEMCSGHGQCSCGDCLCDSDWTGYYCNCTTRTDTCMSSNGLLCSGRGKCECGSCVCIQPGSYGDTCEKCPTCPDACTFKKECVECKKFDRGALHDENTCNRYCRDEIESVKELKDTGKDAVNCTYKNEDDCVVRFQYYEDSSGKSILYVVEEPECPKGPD
T2 sequence (P13612 34-977 limits assumed): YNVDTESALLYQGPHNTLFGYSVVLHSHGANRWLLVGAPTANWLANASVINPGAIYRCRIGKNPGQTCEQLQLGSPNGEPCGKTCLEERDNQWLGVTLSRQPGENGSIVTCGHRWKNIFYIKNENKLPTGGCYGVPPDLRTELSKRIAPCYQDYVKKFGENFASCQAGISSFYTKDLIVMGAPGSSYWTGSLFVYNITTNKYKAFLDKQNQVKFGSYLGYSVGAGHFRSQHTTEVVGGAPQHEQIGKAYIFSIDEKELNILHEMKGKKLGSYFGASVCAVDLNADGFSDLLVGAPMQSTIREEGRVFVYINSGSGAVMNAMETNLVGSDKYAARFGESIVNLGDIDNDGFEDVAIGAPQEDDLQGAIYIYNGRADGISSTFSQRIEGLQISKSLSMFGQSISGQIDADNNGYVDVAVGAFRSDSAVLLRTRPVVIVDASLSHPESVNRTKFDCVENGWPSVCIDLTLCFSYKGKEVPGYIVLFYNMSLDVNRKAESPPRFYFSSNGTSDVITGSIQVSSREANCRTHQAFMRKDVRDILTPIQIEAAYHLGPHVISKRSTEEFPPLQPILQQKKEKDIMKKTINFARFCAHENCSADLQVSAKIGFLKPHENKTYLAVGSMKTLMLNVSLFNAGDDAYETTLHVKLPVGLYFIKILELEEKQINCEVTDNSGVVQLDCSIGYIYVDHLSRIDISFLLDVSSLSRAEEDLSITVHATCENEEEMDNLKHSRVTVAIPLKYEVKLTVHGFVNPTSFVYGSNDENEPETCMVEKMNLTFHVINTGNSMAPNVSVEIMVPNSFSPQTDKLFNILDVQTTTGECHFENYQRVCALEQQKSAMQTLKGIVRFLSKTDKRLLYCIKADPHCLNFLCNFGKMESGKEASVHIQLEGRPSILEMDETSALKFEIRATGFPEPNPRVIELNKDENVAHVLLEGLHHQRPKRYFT
T2 sequence (P05556 21-728 limits assumed): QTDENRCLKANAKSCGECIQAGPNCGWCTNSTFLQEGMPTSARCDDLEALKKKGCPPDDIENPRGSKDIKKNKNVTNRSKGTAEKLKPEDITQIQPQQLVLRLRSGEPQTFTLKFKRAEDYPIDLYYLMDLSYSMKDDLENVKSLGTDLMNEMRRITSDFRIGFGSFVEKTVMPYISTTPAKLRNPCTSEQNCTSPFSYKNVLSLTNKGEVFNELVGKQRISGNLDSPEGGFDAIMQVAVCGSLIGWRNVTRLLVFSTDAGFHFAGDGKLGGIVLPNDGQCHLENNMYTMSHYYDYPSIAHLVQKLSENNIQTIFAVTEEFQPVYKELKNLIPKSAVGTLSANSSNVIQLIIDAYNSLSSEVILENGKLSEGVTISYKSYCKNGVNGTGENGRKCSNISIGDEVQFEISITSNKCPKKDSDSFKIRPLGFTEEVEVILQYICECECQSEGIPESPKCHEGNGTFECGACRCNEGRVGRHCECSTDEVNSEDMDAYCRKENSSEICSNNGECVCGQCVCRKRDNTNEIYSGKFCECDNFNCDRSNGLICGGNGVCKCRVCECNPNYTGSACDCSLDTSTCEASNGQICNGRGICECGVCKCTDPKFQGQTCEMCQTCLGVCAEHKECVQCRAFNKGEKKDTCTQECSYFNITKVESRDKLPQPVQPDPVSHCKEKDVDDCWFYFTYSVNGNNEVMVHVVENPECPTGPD
αVβ3 integrin, sequence (P06756 31-992 limits assumed): as the sequence (P06756 31-992 limits assumed) above
αVβ3 integrin, sequence (P05106 27-718 limits assumed): as the sequence (P05106 27-718 limits assumed) above

Substance | Ratio (selectivity αvβ3 vs α4β1) (αvβ3; Modification Tip + Substrate) | frequency of large current events, αvβ3 (αvβ3; Modification Tip + Substrate) | Ratio (selectivity αvβ3 vs α4β1) (αvβ3; Modification Tip only) | frequency of large current events, αvβ3 (αvβ3; Modification Tip only) | frequency of large current events, α4β1 (α4β1; Modification Tip + Substrate) | frequency of large current events, α4β1 (α4β1; Modification Tip only) | binding process (αVβ3 integrin)
cyclo(RGE[dF]C) [RGE] | 1.2 | 0.31 | 1.3 | 0.36 | 0.25 | 0.28 | 
cyclo(RGD[dF]C) [RGD] | 3.1 | 0.57 | 2.6 | 0.55 | 0.19 | 0.21 | almost irreversible
